The results in this text go back to ChEMBL document CHEMBL1151138, “3'-prenyl-4'-methoxy-isoflavone-7-O-beta-D-(2''-O-p-coumaroyl) glucopyranoside, a novel phytoestrogen from Sopubia delphinifolia” (1990).

SMILES strings stand for the structures. Active and inactive are the calls of the source. The rule behind the calls is not given here.

In experiment [1] the test system is Rattus norvegicus. Briefly: Estrogenic activity in albino rat assessed as uterus weight at 10 ug, po administered twice daily measured after 4 days. The experiment is classed as functional.
In experiment [2] the test system is Rattus norvegicus. Briefly: Estrogenic activity in albino rat assessed as uterus weight at 20 ug, po administered twice daily measured after 4 days. The class given is functional.
Experiment [3] has as its system Rattus norvegicus. Kind of experiment: Estrogenic activity in albino rat assessed as uterus weight at 50 ug, po administered twice daily measured after 4 days. The experiment is classed as functional.
Experiment [4] deals with Rattus norvegicus. Kind of experiment: Estrogenic activity in albino rat assessed as vaginal openings at 10 ug, po administered twice daily measured after 4 days relative to control. The class given is functional, organism-based.
The subject of experiment [5] is Rattus norvegicus. Kind of experiment: Estrogenic activity in albino rat assessed as vaginal openings at 50 ug, po administered twice daily measured after 4 days relative to control. The experiment is classed as functional.

Regarding `COc1ccc(-c2coc3cc(O[C@@H]4O[C@H](CO)[C@@H](O)[C@H](O)[C@H]4OC(=O)/C=C/c4ccc(O)cc4)ccc3c2=O)cc1CC=C(C)C`, the Activity came out at 18% with Rattus norvegicus [1], 27.79% in the experiment on Rattus norvegicus [2], 33.21% in the experiment on Rattus norvegicus [3] and 100% in the experiment with Rattus norvegicus [5]. Further, in the experiment with Rattus norvegicus [4], the result was inactive.
